Data as given in patent US10392412B2, “Platinum anticancer agents” (THE REGENTS OF THE UNIVERSITY OF CALIFORNIA, priority 2015, dated 2019).
Entries after “also recorded” stand apart in the source; their conditions may differ. Marks after values point to notes of the source that are not given here.

Legend:
MG-63 cells = assay: Cytotoxicity CellTiter-Glo; type: cell-based, human; details: MG-63, Osteosarcoma
SAOS-2 cells = assay: Cytotoxicity CellTiter-Glo; type: cell-based, human; details: SAOS-2, Osteosarcoma
A549 cells = assay: Cytotoxicity CellTiter-Glo; type: cell-based, human; details: read-out: IC50 (50% growth inhibition); A549, Non-small cell lung; 72 hours
Procedure: (§1) Human cancer cell lines were purchased from UCSF Cell Culture Facility (CCF) or obtained through Material Transfer.
(§2) The range of platinum concentrations used in the studies are 5 μM-100 μM. After 72 hours of treatment, the medium were removed and replaced with 50 μL of the media plus 50 μL of the CellTiterGlo reagent. The number of viable cells in culture will be determined based on quantitation of the ATP present, which is an indicator of the number of active cells. Concentration response graphs were generated for each compound using GraphPad Prism software. The graphs were analyzed using a curve fit for sigmoid dose-response, and IC50 values were derived. The results were expressed as mean IC50 values with the standard error of the mean.

AsPC1 cells = assay: Cytotoxicity CellTiter-Glo; type: cell-based, human; details: read-out: IC50 (50% growth inhibition); AsPC1, Pancreas; 72 hours
Procedure: as §1, §2

DU145 cells = assay: Cytotoxicity CellTiter-Glo; type: cell-based, human; details: read-out: IC50 (50% growth inhibition); DU145, Prostate; 72 hours
Procedure: as §1, §2

H226 cells = assay: Cytotoxicity CellTiter-Glo; type: cell-based, human; details: read-out: IC50 (50% growth inhibition); H226, Non-small cell squamous; 72 hours
Procedure: as §1, §2

HCT116 cells = assay: Cytotoxicity CellTiter-Glo; type: cell-based, human; details: read-out: IC50 (50% growth inhibition); HCT116, Colon; 72 hours
Procedure: as §1, §2

HT29 cells = assay: Cytotoxicity CellTiter-Glo; type: cell-based, human; details: read-out: IC50 (50% growth inhibition); HT29, Colon; 72 hours
Procedure: as §1, §2

PC3 cells = assay: Cytotoxicity CellTiter-Glo; type: cell-based, human; details: read-out: IC50 (50% growth inhibition); PC3, Prostate; 72 hours
Procedure: as §1, §2

PE04 cells = assay: Cytotoxicity CellTiter-Glo; type: cell-based, human; details: read-out: IC50 (50% growth inhibition); PE04, Ovary; 72 hours
ACHN cells = details: Renal
From the text: (§3) The methods that were used by the DTP were described on the DTP website: (https://dtp.nci.nih.gov/discovery_development/nci-60/methodology.htm).

BT-549 cells = details: BT-549, Breast
From the text: as §3

HCT-15 cells = details: HCT-15, Colon
From the text: as §3

HOP-92 cells = details: HOP-92, Non-Small Cell Lung
From the text: as §3

IGROV1 cells = details: IGROV1, Ovarian
From the text: as §3

K-562 cells = details: K-562, Leukemia
From the text: as §3

KM12 cells = details: KM12, Colon
From the text: as §3

LOX IMVI cells = details: Melanoma
From the text: as §3

NCI-ADR-RES cells = details: Ovarian
From the text: as §3

PC-3 cells = details: PC-3, Prostate
From the text: as §3

SK-OV-3 cells = details: SK-OV-3, Ovarian
From the text: as §3

U251 cells = details: U251, Central Nervous System
From the text: as §3

[1] = Maximum tolerated dose study: blood chemistry test (Table 7)
Procedure: The mice used in MTD were given standard chow devoid of added folic acid (low folate diet) (See, Leamon C P et al., J. Pharmacol. Exp. Ther. 327: 918-925). […] Therefore we also designed a MTD study in mice treated with low folate diet. Food consumption on the day before injection (Day −1) was recorded and then it was monitored every other day. […] Blood for clinical chemistry was collected if possible. Liver, kidney and bone marrow were collected. One side of each tissue (except bone marrow) will be fixed in 4-10% formalin for future histology analysis, and the rest of tissue will be cut into pieces, snap frozen, and stored at −80° C. until analysis. Blood samples for clinical chemistry were centrifuged at 8000 rpm for 10 min at 4° C. within 1 hour of collection. Plasma was collected into 1.5 mL eppendorf tubes and stored at −80° C. until analysis. The measured parameters were alanine transaminase (ALT), aspartate transaminase (AST), alkaline phosphatase (ALP), total bilirubin, glucose, blood urea nitrogen (BUN), creatinine, and electrolytes. All experiments were housed in a virus-free, temperature controlled facility on a 12-h light-dark cycle.

[2] = Pharmacokinetics: total platinum in plasma after i.v. tail vein injection; details: equimolar doses: SM-69 5 mpk, cisplatin 2 mpk; single i.v. dose, mice
From the text: (§4) The concentration versus time course of total platinum followed a two-compartment model in the mice. […] In the maximum tolerated dose studies, we observed body weight reduction in all mice due to the low folate diet (FIG. 6).

[3] = Lethality in C57BL/6 mice, i.v. once a week
From the text: as §4

[4] = read-out: IC50 (50% growth inhibition), 72 hours
[5] = 7.5 mpk i.v. once a week, listed as AT-69

Which GI50 (MG-63 cells) does the source give for [Pt(DMSO)methotrexate(Cl)] [SM-69] here?
Its GI50 is 2.4 ± 1.4 µM.

What about the IC50 (MG-63 cells; [4]) of the same substance?
The IC50 was 2.4 ± 1.4 µM.

What about the GI50 (SAOS-2 cells) of the same substance?
The GI50 was 10.4 ± 9.4 µM.

What about the IC50 (SAOS-2 cells; [4]) of the same substance?
Its IC50 is 10.4 ± 9.4 µM.

What about the IC50 (A549 cells) of the same substance?
Its IC50 is 1.2 ± 0.7 µM.

And the IC50 (AsPC1 cells)?
Its IC50 is 7 ± 0.4 µM.

And the IC50 (DU145 cells)?
The IC50 was 1.5 ± 0.2 µM.

What about the IC50 (H226 cells) of the same substance?
Its IC50 is 16.4 ± 13.1 µM.

What about the IC50 (HCT116 cells) of the same substance?
The IC50 was 4.8 ± 0.6 µM.

And the IC50 (HT29 cells)?
The IC50 was 5.9 ± 1.6 µM.

What about the IC50 (PC3 cells) of the same substance?
Its IC50 is 6.3 ± 1.5 µM.

And the IC50 (PE04 cells)?
The IC50 was 4.9 ± 2 µM.

What about the Log10GI50 (ACHN cells) of the same substance?
Its Log10GI50 is −5.12 M.

And the Log10GI50 (BT-549 cells)?
The Log10GI50 was −4.00 M.

And the Log10GI50 (HCT-15 cells)?
The Log10GI50 was −5.04 M.

What about the Log10GI50 (HOP-92 cells) of the same substance?
The Log10GI50 was −4.00 M.

And the Log10GI50 (IGROV1 cells)?
Its Log10GI50 is −4.11 M.

And the Log10GI50 (K-562 cells)?
Its Log10GI50 is −5.79 M.

And the Log10GI50 (KM12 cells)?
The Log10GI50 was −5.17 M.

And the Log10GI50 (LOX IMVI cells)?
Its Log10GI50 is −5.77 M.

And the Log10GI50 (NCI-ADR-RES cells)?
Its Log10GI50 is −5.20 M.

What about the Log10GI50 (PC-3 cells) of the same substance?
The Log10GI50 was −5.35 M.

And the Log10GI50 (SK-OV-3 cells)?
Its Log10GI50 is −4.00 M.

What about the Log10GI50 (U251 cells) of the same substance?
Its Log10GI50 is −5.43 M.

And the Glucose ([1]; 2.5 mpk i.v. once a week)?
The Glucose was 80.25.

And the “Na:K” value ([1]; 2.5 mpk i.v. once a week)?
The value was 33.50.

And the “alanine transaminase, ALT (GPT)” value ([1]; 2.5 mpk i.v. once a week)?
The value was 52.75.

And the “alkaline phosphatase (ALP)” value ([1]; 2.5 mpk i.v. once a week)?
The value was 99.00.

And the “aspartate transaminase, AST (GOT)” value ([1]; 2.5 mpk i.v. once a week)?
Its value is 252.25.

What about the “blood urea nitrogen (BUN)” value ([1]; 2.5 mpk i.v. once a week) of the same substance?
The value was 41.73.

And the “creatinine (CRE)” value ([1]; 2.5 mpk i.v. once a week)?
The value was <0.2.

And the “total bilirubin (TBIL)” value ([1]; 2.5 mpk i.v. once a week)?
Its value is 0.15.

What about the Glucose ([1]; 5 mpk i.v. once a week) of the same substance?
Its Glucose is 73.00.

What about the “Na:K” value ([1]; 5 mpk i.v. once a week) of the same substance?
The value was 33.25.

What about the “alanine transaminase, ALT (GPT)” value ([1]; 5 mpk i.v. once a week) of the same substance?
The value was 83.75.

What about the “alkaline phosphatase (ALP)” value ([1]; 5 mpk i.v. once a week) of the same substance?
The value was 117.25.

And the “aspartate transaminase, AST (GOT)” value ([1]; 5 mpk i.v. once a week)?
The value was 447.25.

What about the “blood urea nitrogen (BUN)” value ([1]; 5 mpk i.v. once a week) of the same substance?
Its value is 65.63.

What about the “creatinine (CRE)” value ([1]; 5 mpk i.v. once a week) of the same substance?
The value was <0.2.

And the “total bilirubin (TBIL)” value ([1]; 5 mpk i.v. once a week)?
The value was 0.53.

What about the Glucose ([1]; 7.5 mpk i.v. once a week) of the same substance?
Its Glucose is 40.67*.

What about the “Na:K” value ([1]; 7.5 mpk i.v. once a week) of the same substance?
The value was 31.67.

What about the “alanine transaminase, ALT (GPT)” value ([1]; 7.5 mpk i.v. once a week) of the same substance?
Its value is 258.33*.

What about the “alkaline phosphatase (ALP)” value ([1]; 7.5 mpk i.v. once a week) of the same substance?
Its value is 140.33*.

And the “aspartate transaminase, AST (GOT)” value ([1]; 7.5 mpk i.v. once a week)?
Its value is 573.67.

And the “blood urea nitrogen (BUN)” value ([1]; 7.5 mpk i.v. once a week)?
The value was “did not observe a significant difference”.

What about the “creatinine (CRE)” value ([1]; 7.5 mpk i.v. once a week) of the same substance?
Its value is “did not observe a significant difference”.

And the “total bilirubin (TBIL)” value ([1]; 7.5 mpk i.v. once a week)?
Its value is 0.40.

What about the “blood urea nitrogen (BUN)” value [1, 5] of the same substance?
The value was 65.40.

And the “creatinine (CRE)” value [1, 5]?
The value was <0.2.

What about the “total platinum levels in plasma compared with cisplatin” value [2] of the same substance?
Its value is “higher plasma levels of total platinum; also recorded: significantly higher than cisplatin”.

What about the lethality ([3]; 5 mg/kg i.v. once a week) of the same substance?
Its lethality is “not”.

And the lethality ([3]; 10 mg/kg i.v. once a week)?
The lethality was “lethal”.
